The results in this text go back to patent publication US20200129622A1, “METHODS OF MAKING ANTIMICROBIAL BIOPOLYMER FROM SODIUM ALGINATE AND ALGAE EXTRACT USING AMINOGLYCOSIDES, AND METHODS OF USING THE SAME” (Colorado School of Mines, priority 2018, published 2020).

Where a name gives a salt, the structure may show the parent alone.

The assay relates to E. coli DH5α. As to the kind of experiment: Antimicrobial activity by agar diffusion assay (zone of inhibition). The class given is cell-based. More on the design: unit not given here. Particulars: 50 μl of 10 mg/ml aqueous antibiotic stock in agar well; 37° C., 18 hr. The method, then:
Antimicrobial activity of polymers was checked against E. coli DH5α using agar diffusion assay. Single colony of E. coli was inoculated in 10 ml of Luria Broth (LB) and incubated till OD600 reached 0.5 (log-phase culture) and 100 μl of bacterial culture was spread over LB agar plates. To check the antimicrobial activity of the antibiotics, wells were made by punching a hole in the LB agar plates. For reference plates, 50 μl of 10 mg/ml aqueous stock solution of each antibiotic was added in the wells as shown in the top row of FIG. 6.
For experiments with alginate polymers, polymer pellets were washed three times with sterile DI water to remove any unbound free antibiotics. Each washing step included the addition of 500 μl of sterile DI water and centrifugation at 10000 rpm for 15 min. After washing, polymer pellets were placed at the center of the LB plates with E. coli DH5α. Plates were incubated at 37° C. for 18 hours (hr). The zone of inhibition, e.g., the area with no growth of bacteria around well or polymer pellet, was measured using a ruler as shown in the middle and bottom rows of FIG. 6 and in Table 3 below.
The antimicrobial property of alginateaminoglycoside polymer against E. coli DH5α was quantified by measurement of the zone of bacterial inhibition. In particular, aminoglycoside biopolymers were prepared in microcentrifuge tubes and after centrifugation, pellet was washed three times with sterile deionized water to remove free antibiotic. After washing, the polymer pellet was carefully removed using a spatula and placed at the center of the plate containing E. coli DH5α cells and incubated for 18 hr. After incubation for 18 hr, white polymer pellets became transparent to varying degrees.
In particular, circular zones of growth inhibition are visible after antibiotics and polymers were placed in wells at the centers of LB plates. […] While polymers made with KS, GS, and KDS became transparent, polymers made with TS and NS remained white.
(In general: Agar diffusion results depend on both activity and mobility in agar.)
`NC[C@H]1O[C@H](O[C@H]2[C@H](O)[C@@H](O[C@H]3O[C@H](CO)[C@@H](O)[C@H](N)[C@H]3O)[C@H](N)C[C@@H]2N)[C@H](O)[C@@H](O)[C@@H]1O` [KS, kanamycin sulfate]: the “diameter of zone of inhibition, Antibiotic only” value (“diameter of zone of inhibition” below) amounted to 3.4 ± 0.1.

Turning to `[H]/N=C(/N)N[C@H]1[C@H](O)[C@@H](O)[C@H](O[C@@H]2O[C@@H](C)[C@](O)(C=O)[C@H]2O[C@@H]2O[C@@H](CO)[C@H](O)[C@@H](O)[C@@H]2NC)[C@@H](N/C(N)=N\[H])[C@@H]1O` [SS, streptomycin sulfate], the “diameter of zone of inhibition” value is recorded as 3.5 ± 0.1.

gentamicin sulfate [GS]: the “diameter of zone of inhibition” value is listed as 2.9 ± 0.1.

Take kanamycin disulfate [KDS]: the “diameter of zone of inhibition” value was found to be 3.0 ± 0.1.

For the compound neomycin sulfate [NS], the “diameter of zone of inhibition” value was determined as 3.0 ± 0.2.

For tobramycin sulfate [TS], the “diameter of zone of inhibition” value turned out to be 3.1 ± 0.1.
